Data on nine substances can be found in US10562935B2, “Stapled peptides and uses thereof” (London Health Sciences Centre Research Inc., priority 2015, dated 2020).

Bridges are numbered along the chain shown (N, C = ends).

For one test, the system named is NF-κB. Kind of test: Inflammation assay: NF-κB inducible SEAP reporter in RAW-Blue macrophages stimulated with PAM3CSK4. The format is cell-based, murine. The note with it: for inhibition of inflammation (SEAP / NF-κB activity, in words): 10 ng/mL peptide with 200 ng/mL PAM3CSK4, 18 hours, compared to +PAM3; for Inflammation (% Inhib.): % inhibition relative to positive control. On the procedure:
Compounds 132, 133, 135, 150, 152, 157-161, 265-269, 275, 277, and 278 were evaluated for their ability to inhibit inflammation. To determine the effect of the peptides on inflammation, commercially available murine RAW 264.7 macrophages carrying a secreted embryonic alkaline phosphatase (SEAP) reporter that is inducible by NF-κB (RAW-Blue; InvivoGen, San Diego, Calif., USA) were used. Cells were grown to 80% confluence in DMEM containing 4.5 g/L glucose, 10% heat-inactivated fetal bovine serum, 2 mM L-glutamine, 50 μg/mL penicillin/streptomycin, 100 μg/mL Normocin (InvivoGen) at 37° C. in 5% CO2. For peptide screening experiments, cells were scraped in growth medium, counted, and plated to flat-bottom 96-well plates at a density of 5×10^4 cells/well either in the presence or absence (control) of 200 ng/mL TLR1/TLR2 agonist PAM3CSK4 (InvivoGen). Peptides were added in 6 replicate wells at a dose of 10 ng/mL in the presence of PAM3CSK4. After 18 hours of stimulation, SEAP concentrations (indicating NF-κB activity) were measured in the supernatants collected from the RAW-Blue cells using QUANTI-BLUE reagent (InvivoGen). After 20 minutes of incubation at 37° C., SEAP levels were determined using spectrophotometry at a wavelength of 630 nm.
Values are the mean and SDM of n=3 replicates. *p<0.05 and ***p<0.001 compared to +PAM3. In FIGS. 44 and 45, where bars are labeled with two compound numbers (“133/150” and “135/152”) this means that the data were pooled for the indicated compounds, i.e., for the non-acetylated and acetylated versions of the indicated peptides.

The nature of test [1]: Function blocking score: total percent inhibition over migration, invasion, inflammation and fibrosis assays divided by number of assays. Type of test: cell-based. The settings on record: for Function blocking score (FBS): total percent inhibition for all assays tested divided by number of assays. On the procedure:
As documented in the Examples hereinabove, a variety of cyclized peptides were produced that contained the HA-binding domain 1 (HABD1), HA-binding domain 2 (HABD2), or both HABD1 and HABD2. These peptides were evaluated for helicity, direct HA binding and in a number of cell-based bioassays (effects on migration, invasion, NFkB activation, and TGFβ1 production) that are relevant to inflammation and fibrosis. The relationships amongst helicity, HA-binding, and biofunction were evaluated. Peptides were divided into three groups for this analysis: (1) peptides containing HABD1 (“HABD1”); (2) peptides containing HABD2 (“HABD2”); and peptides containing most or all of HABD1 and all of HABD2 (“HABD1+HABD2”). R^2 values were calculated to quantify the relationships between helicity, HA-binding, and biofunction were evaluated.
The results of this analysis for the HABD1 peptides are shown below in Tables 15 and 16. Table 16 provides a function blocking scores for each of the tested peptides and provides R^2 values showing the relationship between HA binding and helicity (“HA binding vs. CD”), HA binding and function-blocking score (“HA binding vs. FBS”) and helicity vs. function-blocking score (“CD vs. FBS”). The same type of summaries are provided for the HABD2 peptides in Tables 17 and 18 below, and for the HABD1+HABD2 peptides in Tables 19 and 20 below.
Function blocking scores were calculated as the total percent inhibition achieved by the peptide for all assays the peptides were tested in, divided by the number of assays. Assays included migration, invasion, inflammation and fibrosis assays. Not all peptides were tested all of the assays. All peptides were included for deriving R^2 values (Pearson's formula).

The subject of test [2] is RHAMM-overexpressing (LR21) cells. The test is described as follows: Cell invasion assay (Boyden chamber with MATRIGEL, Chemicon ECM555). Type of test: cell-based. The settings on record: for inhibition of cellular invasion (in words): 10 ng/mL peptide, 20 hours, compared to 30% serum control; for Invasion (% inhib.): % inhibition relative to positive control, 10 ng/mL of peptide. The gist of the method: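 Serum-starved RHAMM-overexpressing LR21 cells (7.5×10^4) placed in upper Boyden chamber over MATRIGEL-coated filter, with or without 10 ng/mL peptide; 30% FBS/DMEM chemoattractant below. Invaded cells quantified after 20 h by CyQUANT GR fluorescence (480/520 nm); mean ± SD, n=3, versus 30% serum control.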

With “Ac-(cyclo-6,10)-VSKLR[EQLVK]RKQN-NH2 (Ac-VSKLREQLVKRKQN-NH2; lactam 6-10; SMILES CC(=O)N[C@H](C(=O)N[C@@H](CO)C(=O)N[C@@H](CCCCN)C(=O)N[C@@H](CC(C)C)C(=O)N[C@@H](CCCNC(=N)N)C(=O)N[C@H]1CCC(=O)NCCCC[C@@H](C(=O)N[C@@H](CCCNC(=N)N)C(=O)N[C@@H](CCCCN)C(=O)N[C@@H](CCC(N)=O)C(=O)N[C@@H](CC(N)=O)C(N)=O)NC(=O)[C@H](C(C)C)NC(=O)[C@H](CC(C)C)NC(=O)[C@H](CCC(N)=O)NC1=O)C(C)C) [Compound 152]”, in the test with NF-κB, the “inhibition of inflammation (SEAP / NF-κB activity, in words)” value is on record as “significantly inhibited inflammation”. Besides, in test [1], the “function blocking (in words)” value is “strong function blocker” and the “Function blocking score (FBS)” value is given as 47. Moreover, the “inhibition of cellular invasion (in words)” value (shortened to “inhibition … (in words)”) in test [2] is reported as “significantly inhibited cellular invasion”.

For “Ac-(cyclo-10-14, cyclo-15-19)-KIKHVVKLK[EENSK][KKSEE]SKLRSQLVKRK-NH2 (Ac-KIKHVVKLKEENSKKKSEESKLRSQLVKRK-NH2; lactam 10-14, 15-19; SMILES CC[C@H](C)[C@H](NC(=O)[C@H](CCCCN)NC(C)=O)C(=O)N[C@@H](CCCCN)C(=O)N[C@@H](Cc1c[nH]cn1)C(=O)N[C@H](C(=O)N[C@H](C(=O)N[C@@H](CCCCN)C(=O)N[C@@H](CC(C)C)C(=O)N[C@@H](CCCCN)C(=O)N[C@H]1CCC(=O)NCCCC[C@@H](C(=O)N[C@H]2CCCCNC(=O)CC[C@@H](C(=O)N[C@@H](CO)C(=O)N[C@@H](CCCCN)C(=O)N[C@@H](CC(C)C)C(=O)N[C@@H](CCCNC(=N)N)C(=O)N[C@@H](CO)C(=O)N[C@@H](CCC(N)=O)C(=O)N[C@@H](CC(C)C)C(=O)N[C@H](C(=O)N[C@@H](CCCCN)C(=O)N[C@@H](CCCNC(=N)N)C(=O)N[C@@H](CCCCN)C(N)=O)C(C)C)NC(=O)[C@H](CCC(=O)O)NC(=O)[C@H](CO)NC(=O)[C@H](CCCCN)NC2=O)NC(=O)[C@H](CO)NC(=O)[C@H](CC(N)=O)NC(=O)[C@H](CCC(=O)O)NC1=O)C(C)C)C(C)C) [Compound 268]”, in the test on NF-κB, the “Inflammation (% Inhib.)” value is given as 0 % Inhib. For the same substance, the “Function blocking score (FBS)” value in test [1] is recorded as 14. In addition, in test [2], the “inhibition … (in words)” value is “significantly inhibited cellular invasion” and the “Invasion (% inhib.)” value was determined as 50 % inhib.

Consider “Ac-(cyclo-28-32)-NLKQKIKHVVKLKDENSQLKSEVSKLR[EQLVK]RKQN-NH2 (Ac-NLKQKIKHVVKLKDENSQLKSEVSKLREQLVKRKQN-NH2; lactam 28-32; SMILES CC[C@H](C)[C@H](NC(=O)[C@H](CCCCN)NC(=O)[C@H](CCC(N)=O)NC(=O)[C@H](CCCCN)NC(=O)[C@H](CC(C)C)NC(=O)[C@H](CC(N)=O)NC(C)=O)C(=O)N[C@@H](CCCCN)C(=O)N[C@@H](Cc1c[nH]cn1)C(=O)N[C@H](C(=O)N[C@H](C(=O)N[C@@H](CCCCN)C(=O)N[C@@H](CC(C)C)C(=O)N[C@@H](CCCCN)C(=O)N[C@@H](CC(=O)O)C(=O)N[C@@H](CCC(=O)O)C(=O)N[C@@H](CC(N)=O)C(=O)N[C@@H](CO)C(=O)N[C@@H](CCC(N)=O)C(=O)N[C@@H](CC(C)C)C(=O)N[C@@H](CCCCN)C(=O)N[C@@H](CO)C(=O)N[C@@H](CCC(=O)O)C(=O)N[C@H](C(=O)N[C@@H](CO)C(=O)N[C@@H](CCCCN)C(=O)N[C@@H](CC(C)C)C(=O)N[C@@H](CCCNC(=N)N)C(=O)N[C@H]1CCC(=O)NCCCC[C@@H](C(=O)N[C@@H](CCCNC(=N)N)C(=O)N[C@@H](CCCCN)C(=O)N[C@@H](CCC(N)=O)C(=O)N[C@@H](CC(N)=O)C(N)=O)NC(=O)[C@H](C(C)C)NC(=O)[C@H](CC(C)C)NC(=O)[C@H](CCC(N)=O)NC1=O)C(C)C)C(C)C)C(C)C) [Compound 277]”, for which, in the test on NF-κB, the “inhibition of inflammation (SEAP / NF-κB activity, in words)” value is on record as “significantly inhibited inflammation” and the “Inflammation (% Inhib.)” value was 8 % Inhib. Besides, the “Function blocking score (FBS)” value in test [1] is recorded as 29. Also, the “Invasion (% inhib.)” value in test [2] was determined as 0 % inhib.

As to “Ac-(cyclo-4,8)-VSK[ERSQK]VKRKQN-NH2 (Ac-VSKERSQKVKRKQN-NH2; lactam 4-8; SMILES CC(=O)N[C@H](C(=O)N[C@@H](CO)C(=O)N[C@@H](CCCCN)C(=O)N[C@H]1CCC(=O)NCCCC[C@@H](C(=O)N[C@H](C(=O)N[C@@H](CCCCN)C(=O)N[C@@H](CCCNC(=N)N)C(=O)N[C@@H](CCCCN)C(=O)N[C@@H](CCC(N)=O)C(=O)N[C@@H](CC(N)=O)C(N)=O)C(C)C)NC(=O)[C@H](CCC(N)=O)NC(=O)[C@H](CO)NC(=O)[C@H](CCCNC(=N)N)NC1=O)C(C)C) [Compound 150]”, the “Inflammation (% Inhib.)” value with NF-κB turned out to be 0 % Inhib. The “Function blocking score (FBS)” value in test [1] is reported as 27. Further, in test [2], the “inhibition … (in words)” value is on record as “significantly inhibited cellular invasion” and the “Invasion (% inhib.)” value is listed as 79 % inhib.

For “Ac-(cyclo-11-15, cyclo-16-20)-KIKHVVKLKD[ENSQK][ESEVK]KLRSQLVKRIK-NH2 [Compound 267]”, in the test on NF-κB, the “Inflammation (% Inhib.)” value was 0 % Inhib. The “Function blocking score (FBS)” value in test [1] was 0. The “Invasion (% inhib.)” value in test [2] was determined as 0 % inhib.

With Ac-VSKLRSQLVKRKQN-NH2 [Compound 132], the “Inflammation (% Inhib.)” value in the test on NF-κB is 0 % Inhib. The “Function blocking score (FBS)” value in test [1] amounted to 17. In test [2], the “inhibition … (in words)” value is recorded as “significantly inhibited cellular invasion” and the “Invasion (% inhib.)” value stood at 66 % inhib.

Take “Ac-KIKHVVKLKDENSQLKSEVSKLRSQLVKRK-NH2 [Compound 265]”: in the test with NF-κB, the “inhibition of inflammation (SEAP / NF-κB activity, in words)” value is “significantly inhibited inflammation” and the “Inflammation (% Inhib.)” value came out at 18 % Inhib. Besides, the “Function blocking score (FBS)” value in test [1] was found to be 28. Further, in test [2], the “inhibition … (in words)” value is on record as “significantly inhibited cellular invasion” and the “Invasion (% inhib.)” value came to 46 % inhib.

For the substance “Ac-(cyclo-10-14, cyclo-15-19)-KIKHVVKLK[EENSK][EKSEK]SKLRSQLVKRK-NH2 (Ac-KIKHVVKLKEENSKEKSEKSKLRSQLVKRK-NH2; lactam 10-14, 15-19; SMILES CC[C@H](C)[C@H](NC(=O)[C@H](CCCCN)NC(C)=O)C(=O)N[C@@H](CCCCN)C(=O)N[C@@H](Cc1c[nH]cn1)C(=O)N[C@H](C(=O)N[C@H](C(=O)N[C@@H](CCCCN)C(=O)N[C@@H](CC(C)C)C(=O)N[C@@H](CCCCN)C(=O)N[C@H]1CCC(=O)NCCCC[C@@H](C(=O)N[C@H]2CCC(=O)NCCCC[C@@H](C(=O)N[C@@H](CO)C(=O)N[C@@H](CCCCN)C(=O)N[C@@H](CC(C)C)C(=O)N[C@@H](CCCNC(=N)N)C(=O)N[C@@H](CO)C(=O)N[C@@H](CCC(N)=O)C(=O)N[C@@H](CC(C)C)C(=O)N[C@H](C(=O)N[C@@H](CCCCN)C(=O)N[C@@H](CCCNC(=N)N)C(=O)N[C@@H](CCCCN)C(N)=O)C(C)C)NC(=O)[C@H](CCC(=O)O)NC(=O)[C@H](CO)NC(=O)[C@H](CCCCN)NC2=O)NC(=O)[C@H](CO)NC(=O)[C@H](CC(N)=O)NC(=O)[C@H](CCC(=O)O)NC1=O)C(C)C)C(C)C) [Compound 266]”, in the test with NF-κB, the “Inflammation (% Inhib.)” value worked out at 0 % Inhib. Moreover, in test [1], the “Function blocking score (FBS)” value came out at 28. Also, in test [2], the “inhibition … (in words)” value is “significantly inhibited cellular invasion” and the “Invasion (% inhib.)” value turned out to be 50 % inhib.

Regarding “Ac-NLKQKIKHVVKLKDENSQLKSEVSKLRSQLVKRKQN-NH2 [Compound 275]”, the “Inflammation (% Inhib.)” value in the test on NF-κB is 0 % Inhib. For the same substance, the “Function blocking score (FBS)” value in test [1] was determined as 12. Also, the “Invasion (% inhib.)” value in test [2] is reported as 0 % inhib.
